This is an account of results in patent US10513523B2, “Imidazopyrazines and pyrazolopyrimidines and their use as AMPA receptor modulators” (Janssen Pharmaceutica NV, priority 2015, dated 2019).

In this assay the target is GluA1o-γ8 (GRIA1o-CACNG8 fusion construct; TARP γ8 dependent AMPA receptor) (Homo sapiens (Human), UniProt P42261+Q8WXS5). The experiment in a line: Calcium flux assay (FLIPR), inhibition of glutamate response of GluA1o-γ8 channel. It counts as cell-based. As to conditions: HEK293 cells stably expressing GRIA1o-CACNG8 fusion; 15 μM glutamate; pIC50 = negative log of IC50 in molar; read-out: GluR1-γ8 (pIC50) (converted). From the text:
This assay was used to test compounds for their ability to inhibit TARP γ8 dependent AMPA receptor activity. The AMPA receptor is a non-selective cation channel activated by glutamate. Ionotropic glutamate receptors normally desensitize too rapidly to allow detectable calcium influx in a FLIPR assay (Strange et al. (2006). “Functional characterisation of homomeric ionotropic glutamate receptors GluR1-GluR6 in a fluorescence-based high throughput screening assay.” Comb Chem High Throughput Screen 9(2): 147-158). But, this desensitization is incomplete, and a substantial steady-state current remains in the sustained presence of glutamate (Cho et al. (2007). “Two families of TARP isoforms that have distinct effects on the kinetic properties of AMPA receptors and synaptic currents.” Neuron 55(6): 890-904).
An in vitro assay was used to determine the potency of test compounds as inhibitors of the glutamate response of the channel formed by GluA1o-γ8. To ensure a 1:1 stoichiometry of GluA10 and γ8 subunits in the expressed channel, a fusion of the cDNAs for GRIA1o and CACNG8 was used. Following Shi et al (2009) “The stoichiometry of AMPA receptors and TARPs varies by neuronal cell type.” Neuron 62(5): […]), the C-terminus of the cDNA for GRI1o was fused to the N-terminus of the cDNA for γ8. The linker sequence was […]. […] A clonal cell line in HEK293 cells stably expressing this construct, with a geneticin selection marker, was generated for use in this assay. Cell expressing the GRIA1o-CACNG8 fusion construct were grown in a monolayer in 96- or 384-well microtiter plates. They were washed with assay buffer (135 mM NaCl, 4 mM KCl, 3 mM CaCl2, 1 mM MgCl2, 5 mM glucose, 10 mM HEPES, pH 7.4, 300 mOs) using a Biotek EL405 plate washer. The cells were then loaded with a calcium-sensitive dye (Calcium-5 or Calcium-6, Molecular Devices) and the test compounds at a range of concentrations. Calcium flux following the addition of 15 μM glutamate was monitored using a Molecular Devices FLIPR Tetra.
The fluorescence in each well was normalized to the fluorescence of negative and positive control wells. […] The responses to glutamate as functions of the test compound concentrations were fitted to a four-parameter logistic function. The fitted parameter corresponding to the midpoint was taken to be the potency of inhibition of the compound.
For orientation: A change in cytosolic calcium serves as a functional read-out for many receptors and channels.

GluA1o-γ8 (GRIA1o-CACNG8 fusion construct; TARP γ8 dependent AMPA receptor), sequence (P42261 other isoform, or with tags, fused parts or gaps): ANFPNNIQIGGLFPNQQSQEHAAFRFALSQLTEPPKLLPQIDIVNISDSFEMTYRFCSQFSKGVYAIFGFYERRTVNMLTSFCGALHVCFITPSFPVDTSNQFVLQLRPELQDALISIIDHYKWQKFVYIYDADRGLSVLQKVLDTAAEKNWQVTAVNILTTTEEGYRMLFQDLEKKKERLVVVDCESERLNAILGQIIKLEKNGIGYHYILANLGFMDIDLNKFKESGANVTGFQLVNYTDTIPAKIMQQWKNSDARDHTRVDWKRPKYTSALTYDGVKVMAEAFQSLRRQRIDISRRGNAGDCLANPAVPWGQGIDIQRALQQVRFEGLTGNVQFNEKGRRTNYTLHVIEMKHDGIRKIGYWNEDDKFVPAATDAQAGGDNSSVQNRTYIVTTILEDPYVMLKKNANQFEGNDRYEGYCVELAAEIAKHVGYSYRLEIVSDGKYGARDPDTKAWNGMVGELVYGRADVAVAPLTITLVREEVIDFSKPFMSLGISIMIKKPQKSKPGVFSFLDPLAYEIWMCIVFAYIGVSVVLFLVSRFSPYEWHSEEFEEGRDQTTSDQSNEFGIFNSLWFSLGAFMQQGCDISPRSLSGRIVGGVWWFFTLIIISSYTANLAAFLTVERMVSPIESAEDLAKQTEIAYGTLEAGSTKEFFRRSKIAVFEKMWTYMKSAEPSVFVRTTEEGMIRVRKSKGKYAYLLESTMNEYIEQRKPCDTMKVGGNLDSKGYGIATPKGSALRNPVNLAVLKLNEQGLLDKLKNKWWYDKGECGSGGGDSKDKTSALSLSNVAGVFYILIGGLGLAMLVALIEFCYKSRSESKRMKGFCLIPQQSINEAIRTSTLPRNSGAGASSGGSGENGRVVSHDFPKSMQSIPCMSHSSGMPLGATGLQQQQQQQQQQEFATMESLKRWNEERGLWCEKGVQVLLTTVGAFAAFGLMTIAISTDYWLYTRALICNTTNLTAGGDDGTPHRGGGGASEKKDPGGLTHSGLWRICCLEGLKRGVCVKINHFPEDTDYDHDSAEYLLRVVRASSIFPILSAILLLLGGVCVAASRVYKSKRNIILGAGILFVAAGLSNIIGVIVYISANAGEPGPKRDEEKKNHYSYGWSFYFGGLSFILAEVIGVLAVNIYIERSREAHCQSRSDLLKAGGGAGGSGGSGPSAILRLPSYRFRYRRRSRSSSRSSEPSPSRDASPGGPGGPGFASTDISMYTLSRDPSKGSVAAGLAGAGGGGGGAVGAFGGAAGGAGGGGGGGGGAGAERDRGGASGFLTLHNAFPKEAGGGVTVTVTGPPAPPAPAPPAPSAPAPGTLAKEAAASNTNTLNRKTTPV

On to `CC(=O)N1CCN(c2nccn3c(-c4ccc5[nH]c(=O)[nH]c5c4)c(-c4ccc(F)cc4)nc23)CC1` [Example 14, 5-[8-(4-Acetylpiperazin-1-yl)-2-(4-fluorophenyl)imidazo[1,2-a]pyrazin-3-yl]-1,3-dihydrobenzimidazol-2-one], for which the IC50 was 1.58 nM.
In the case of `CC(=O)N1CCN(c2nccn3c(-c4ccc(O)cc4)c(-c4ccc(Cl)cc4)nc23)CC1` [Example 94, 1-[4-[2-(4-Chlorophenyl)-3-(4-hydroxyphenyl)imidazo[1,2-a]pyrazin-8-yl]piperazin-1-yl]ethanone], the IC50 is 3.16 nM.
`Cc1cc(O)ccc1-c1c(-c2ccc(F)cc2)nc2c(N3CCOCC3)nccn12` [Example 2, 4-[2-(4-Fluorophenyl)-8-morpholino-imidazo[1,2-a]pyrazin-3-yl]-3-methyl-phenol]: the IC50 was 31.6 nM.
As for `O=C1Cc2cc(-c3c(C4CCCC4)nn4c(N5CC(O)C5)nccc34)ccc2N1` [Example 205, 5-[2-Cyclopentyl-7-(3-hydroxyazetidin-1-yl)pyrazolo[1,5-c]pyrimidin-3-yl]indolin-2-one], the IC50 is 631 nM.
With `O=C1CN(c2nccn3c(-c4ccc5c(c4)CC(=O)N5)c(-c4ccc(F)cc4)nc23)CCN1` [Example 32, 5-[2-(4-Fluorophenyl)-8-(3-oxopiperazin-1-yl)imidazo[1,2-a]pyrazin-3-yl]indolin-2-one], the IC50 is 0.501 nM.
Consider `CN(C)c1nccc2c(-c3ccc4c(c3)CC(=O)N4)c(-c3ccc(F)cc3)nn12` [Example 169, 5-[7-(Dimethylamino)-2-(4-fluorophenyl)pyrazolo[1,5-c]pyrimidin-3-yl]indolin-2-one], for which the IC50 is 1.58 nM.
`O=c1[nH]c2ccc(-c3c(-c4ccc(F)cc4)nc4c(N5CCOCC5)ncc(F)n34)cc2[nH]1` [Example 162, 5-[5-Fluoro-2-(4-fluorophenyl)-8-morpholino-imidazo[1,2-a]pyrazin-3-yl]-1,3-dihydrobenzimidazol-2-one]: the IC50 is 3.98 nM.
As for `N#Cc1ccc(-c2nc3c(N4CCNC(=O)C4)nccn3c2-c2ccc3[nH]c(=O)[nH]c3c2)cc1` [Example 211, 4-[3-(2-Oxo-1,3-dihydrobenzimidazol-5-yl)-8-(3-oxopiperazin-1-yl)imidazo[1,2-a]pyrazin-2-yl]benzonitrile], the figure is 3.98 nM.
Consider `CC1(O)CN(c2nccn3c(-c4ccc5c(c4)CC(=O)N5)c(-c4ccc(F)cc4)nc23)C1` [Example 67, 5-[2-(4-Fluorophenyl)-8-(3-hydroxy-3-methyl-azetidin-1-yl)imidazo[1,2-a]pyrazin-3-yl]indolin-2-one], for which the IC50 is 1.26 nM.
Consider `Cc1cc2c(-c3ccc4c(c3)CC(=O)N4)c(-c3ccccc3)nn2c(N2CCOCC2)n1` [Example 198, 5-(5-Methyl-7-morpholino-2-phenyl-pyrazolo[1,5-c]pyrimidin-3-yl)indolin-2-one], for which the IC50 was 3.16 nM.
Consider `O=C1Cc2cc(-c3c(C4CC4)nc4c(N5CCOCC5)nccn34)ccc2N1` [Example 91, 5-(2-Cyclopropyl-8-morpholino-imidazo[1,2-a]pyrazin-3-yl)indolin-2-one], for which the IC50 is 501 nM.
Then `CO[C@H]1CCN(c2nccc3c(-c4ccc5c(c4)CC(=O)N5)c(-c4ccccc4)nn23)C1` [Example 197, 5-[7-[(3S)-3-Methoxypyrrolidin-1-yl]-2-phenyl-pyrazolo[1,5-c]pyrimidin-3-yl]indolin-2-one], with 1.26 nM; and `CC(=O)N1CCN(c2nccn3c(-c4ccc(O)cc4)c(Cc4ccccc4)nc23)CC1` [Example 23, 1-[4-[2-Benzyl-3-(4-hydroxyphenyl)imidazo[1,2-a]pyrazin-8-yl]piperazin-1-yl]ethanone], with 25.1 nM; and `O=C(Nc1ccncc1)c1nc2c(N3CCOCC3)nccn2c1-c1ccc2[nH]c(=O)[nH]c2c1` [Example 147, 8-Morpholino-3-(2-oxo-1,3-dihydrobenzimidazol-5-yl)-N-(4-pyridyl)imidazo[1,2-a]pyrazine-2-carboxamide], with 501 nM.
On to `Cc1cnc(N2CCOCC2)n2nc(C(C)C)c(-c3ccc4c(c3)CC(=O)N4)c12` [Example 244, 5-(2-Isopropyl-4-methyl-7-morpholino-pyrazolo[1,5-c]pyrimidin-3-yl)indolin-2-one], for which the IC50 is 79.4 nM.
Regarding `O=C1Cc2cc(-c3c(-c4ccncc4)nc4c(N5CCC(O)CC5)nccn34)ccc2N1` [Example 215, 5-[8-(4-Hydroxy-1-piperidyl)-2-(4-pyridyl)imidazo[1,2-a]pyrazin-3-yl]indolin-2-one], the IC50 is 39.8 nM.
Turning to `CNc1nccc2c(-c3ccc4c(c3)CC(=O)N4)c(-c3ccc(F)cc3)nn12` [Example 171, 5-[2-(4-Fluorophenyl)-7-(methylamino)pyrazolo[1,5-c]pyrimidin-3-yl]indolin-2-one], the IC50 is 12.6 nM.
With `Cc1nccn2c(-c3ccc4c(c3)CC(=O)N4)c(-c3ccc(F)cc3)nc12` [Example 133, 5-[2-(4-Fluorophenyl)-8-methyl-imidazo[1,2-a]pyrazin-3-yl]indolin-2-one], the IC50 was 251 nM.
Turning to `Fc1ccc(-c2nc3c(N4CCOCC4)nccn3c2-c2ccc3[nH]ccc3c2)cc1` [Example 16, 4-[2-(4-Fluorophenyl)-3-(1H-indol-5-yl)imidazo[1,2-a]pyrazin-8-yl]morpholine], the IC50 is 15.8 nM.
Consider `Oc1ccc(-c2c(-c3ccc(F)cc3)nc3c(N4CCCCC4)nccn23)cc1` [Example 9, 4-[2-(4-Fluorophenyl)-8-(1-piperidyl)imidazo[1,2-a]pyrazin-3-yl]phenol], for which the IC50 is 200 nM.
As for `C[C@@H]1COCCN1c1nccn2c(-c3ccc4c(c3)CC(=O)N4)c(-c3ccc(F)cc3)nc12` [Example 44, 5-[2-(4-Fluorophenyl)-8-[(3R)-3-methylmorpholin-4-yl]imidazo[1,2-a]pyrazin-3-yl]indolin-2-one], the figure is 7.94 nM; as for `CC(C)(C)c1nn2c(N3CCC(O)CC3)nccc2c1-c1ccc2c(c1)CC(=O)N2` [Example 181, 5-[2-tert-Butyl-7-(4-hydroxy-1-piperidyl)pyrazolo[1,5-c]pyrimidin-3-yl]indolin-2-one], 200 nM; as for `CC(C)(C)c1nc2c(N3CCC(O)CC3)nccn2c1-c1ccc2c(c1)CC(=O)N2` [Example 88, 5-[2-tert-Butyl-8-(4-hydroxy-1-piperidyl)imidazo[1,2-a]pyrazin-3-yl]indolin-2-one], 126 nM.
Take `O=c1[nH]c2ccc(-c3c(-c4ccccc4)nn4cnc(C(F)(F)F)cc34)cc2s1` [Example 224, 6-[2-phenyl-5-(trifluoromethyl)pyrazolo[1,5-c]pyrimidin-3-yl]-3H-1,3-benzothiazol-2-one]: the IC50 was 20 nM.
As for `O=C1Cc2cc(-c3c(-c4ccc(F)cc4)nc4c(N5CC[C@H](O)C5)nccn34)ccc2N1` (single isomer, unassigned) [Example 53, (S*)-5-[2-(4-Fluorophenyl)-8-(3-hydroxypyrrolidin-1-yl)imidazo[1,2-a]pyrazin-3-yl]indolin-2-one], the figure is 1.58 nM.
Take `O=c1[nH]c2ccc(-c3c(C4CC4)nn4cnc(C(F)(F)F)cc34)cc2s1` [Example 230, 6-[2-Cyclopropyl-5-(trifluoromethyl)pyrazolo[1,5-c]pyrimidin-3-yl]-3H-1,3-benzothiazol-2-one]: the IC50 is 398 nM.
